# Legend:
# P2X4 [1] = target: T1, P2X4 (Homo sapiens, UniProt Q99571); assay: Assay A: human P2X4 receptor cell line, FLIPR calcium assay (Fluo-8, agonist Bz-ATP at EC80); type: cell-based; set-up: host or cells: HEK 293 (recombinant, constitutively expressing; with mitochondrial photina in Assay B); conditions: HEK human P2X4 cells, Fluo-8 FLIPR; for IC50: Bz-ATP at EC80, average values; for Emax: percentage of maximal inhibition, read-out: human P2X4 Assay A avg Efficacy
# T1 sequence (Q99571 1-388): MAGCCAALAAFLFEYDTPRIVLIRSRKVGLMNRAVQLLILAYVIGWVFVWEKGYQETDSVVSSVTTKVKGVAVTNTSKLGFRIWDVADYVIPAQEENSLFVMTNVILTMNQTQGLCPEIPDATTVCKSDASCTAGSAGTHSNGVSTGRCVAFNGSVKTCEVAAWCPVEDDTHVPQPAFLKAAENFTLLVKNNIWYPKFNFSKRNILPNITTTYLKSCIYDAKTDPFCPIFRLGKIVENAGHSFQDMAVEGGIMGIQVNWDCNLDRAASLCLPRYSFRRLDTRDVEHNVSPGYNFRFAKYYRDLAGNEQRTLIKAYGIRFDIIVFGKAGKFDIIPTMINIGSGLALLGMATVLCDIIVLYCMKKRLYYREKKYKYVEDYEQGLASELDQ
# Method in brief: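 HEK cells expressing human P2X4 (20,000/well, plated ~20 h earlier) loaded 30 min with 5 μM Fluo-8 in HBSS/HEPES buffer with 1.8 mM CaCl2, 1 mM MgCl2, 2 mM probenecid, pH 7.4. Antagonist preincubated 30 min at room temperature (0.5% DMSO), then Bz-ATP at EC80. Peak fluorescence over 120 s, normalized to DMSO; triplicate IC50 and Hill fits.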
# P2X4 [2] = target: T1, P2X4; assay: Assay B: human P2X4 receptor cell line, mitochondrial photina luminescence (agonist Bz-ATP at EC50); type: cell-based; set-up: host or cells: HEK 293 (recombinant, constitutively expressing; with mitochondrial photina in Assay B); conditions: HEK human P2X4 cell line, photina luminescence, agonist Bz-ATP at EC50, average; for Emax: read-out: human P2X4 Assay B avg Efficacy
# Method in brief: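 Recombinant cell line constitutively expressing human P2X4 and mitochondrial photina photoprotein, reconstituted with coelenterazine. Receptor stimulated with Bz-ATP at EC50; calcium influx read immediately as luminescence.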
IC50 (P2X4 [1]),Emax (P2X4 [1]),IC50 (P2X4 [2]),Emax (P2X4 [2]),SMILES
201 nM,86%,901 nM,64%,"NS(=O)(=O)c1cc(NC(=O)Cc2cccc(C(F)(F)F)c2Cl)ccc1Oc1cccc(Cl)c1 [Example 107, N-[4-(3-Chlorophenoxy)-3-sulfamoylphenyl]-2-[2-chloro-3-(trifluoromethyl)phenyl]acetamide]"
254 nM,79%,159 nM,37%,"NS(=O)(=O)c1cc(NC(=O)Cc2ccc(Cl)cc2Cl)ccc1Oc1cccc(Cl)c1 [Example 110, N-[4-(3-Chlorophenoxy)-3-sulfamoylphenyl]-2-(2,4-dichlorophenyl)acetamide]"
173 nM,88%,239 nM,73%,"NS(=O)(=O)c1cc(NC(=O)Cc2ccccc2OC(F)F)ccc1Oc1cccc(Cl)c1 [Example 113, N-[4-(3-Chlorophenoxy)-3-sulfamoylphenyl]-2-[2-(difluoromethoxy)phenyl]acetamide]"
,87%,,72%,"NS(=O)(=O)c1cc(NC(=O)Cc2ccc(C(F)(F)F)cc2)ccc1Oc1cccc(Cl)c1 [Example 116, N-[4-(3-Chlorophenoxy)-3-sulfamoylphenyl]-2-[4-(trifluoromethyl)phenyl]acetamide]"
43 nM,94%,468 nM,61%,"NS(=O)(=O)c1cc(NC(=O)Cc2cc(Br)ccc2Cl)ccc1Oc1cccc(Cl)c1 [Example 117, 2-(5-Bromo-2-chlorophenyl)-N-[4-(3-chlorophenoxy)-3-sulfamoylphenyl]acetamide]"
65 nM,83%,194 nM,78%,"Cc1ccc(F)c(CC(=O)Nc2ccc(Oc3cccc(Cl)c3)c(S(N)(=O)=O)c2)c1Cl [Example 120, 2-(2-Chloro-6-fluoro-3-methylphenyl)-N-[4-(3-chlorophenoxy)-3-sulfamoylphenyl]acetamide]"
26 nM,83%,105 nM,54%,"NS(=O)(=O)c1cc(NC(=O)Cc2c(F)ccc(F)c2Cl)ccc1Oc1cccc(Cl)c1 [Example 122, 2-(2-Chloro-3,6-difluorophenyl)-N-[4-(3-chlorophenoxy)-3-sulfamoylphenyl]acetamide]"
184 nM,77%,380 nM,60%,"Cc1ccc(Cl)c(CC(=O)Nc2ccc(Oc3cccc(Cl)c3)c(S(N)(=O)=O)c2)c1Cl [Example 128, N-[4-(3-Chlorophenoxy)-3-sulfamoylphenyl]-2-(2,6-dichloro-3-methylphenyl)acetamide]"
1170 nM,83%,1300 nM,69%,"NS(=O)(=O)c1cc(NC(=O)Cc2c(Cl)ccc(C3CC3)c2Cl)ccc1Oc1cccc(Cl)c1 [Example 129, N-[4-(3-Chlorophenoxy)-3-sulfamoylphenyl]-2-(2,6-dichloro-3-cyclopropylphenyl)acetamide]"
979 nM,91%,1050 nM,70%,"NS(=O)(=O)c1cc(NC(=O)Cc2c(Cl)ccc(C(F)(F)F)c2Cl)ccc1Oc1cccc(Cl)c1 [Example 130, N-[4-(3-Chlorophenoxy)-3-sulfamoylphenyl]-2-[2,6-dichloro-3-(trifluoromethyl)phenyl]acetamide]"
284 nM,77%,2400 nM,86%,"NS(=O)(=O)c1cc(NC(=O)Cc2c(Cl)ccc(Br)c2Cl)ccc1Oc1cccc(Cl)c1 [Example 131, 2-(3-bromo-2,6-dichlorophenyl)-N-[4-(3-chlorophenoxy)-3-sulfamoylphenyl]acetamide]"
541 nM,72%,640 nM,102%,"Cc1ccc(Br)c(Cl)c1CC(=O)Nc1ccc(Oc2cccc(Cl)c2)c(S(N)(=O)=O)c1 [Example 132, 2-(3-Bromo-2-chloro-6-methylphenyl)-N-[4-(3-chlorophenoxy)-3-sulfamoylphenyl]acetamide]"
375 nM,75%,4100 nM,92%,"Cc1c(Br)ccc(Cl)c1CC(=O)Nc1ccc(Oc2cccc(Cl)c2)c(S(N)(=O)=O)c1 [Example 133, 2-(3-Bromo-6-chloro-2-methylphenyl)-N-[4-(3-chlorophenoxy)-3-sulfamoylphenyl]acetamide]"
688 nM,83%,1350 nM,77%,"NS(=O)(=O)c1cc(NC(=O)Cc2cc(OC(F)(F)C(F)F)ccc2Cl)ccc1Oc1cccc(Cl)c1 [Example 134, N-[4-(3-Chlorophenoxy)-3-sulfamoylphenyl]-2-[2-chloro-5-(1,1,2,2-tetrafluoroethoxy)phenyl]acetamide]"
631 nM,75%,870 nM,45%,"NS(=O)(=O)c1cc(NC(=O)Cc2ccc(C(F)(F)F)cc2Cl)ccc1Oc1cccc(Cl)c1 [Example 135, N-[4-(3-Chlorophenoxy)-3-sulfamoylphenyl]-2-[2-chloro-4-(trifluoromethyl)phenyl]acetamide]"
10 nM,90%,102 nM,83%,"CS(=O)(=O)c1cccc(COc2ccc(NC(=O)Cc3ccccc3Cl)cc2S(N)(=O)=O)c1 [Example 136, 2-(2-Chlorophenyl)-N-(4-{[3-(methylsulfonyl)benzyl]oxy}-3-sulfamoylphenyl)acetamide]"
8 nM,103%,44 nM,67%,"COc1cccc(COc2ccc(NC(=O)Cc3ccccc3Cl)cc2S(N)(=O)=O)c1 [Example 140, 2-(2-Chlorophenyl)-N-{4-[(3-methoxybenzyl)oxy]-3-sulfamoylphenyl}acetamide]"
43 nM,90%,60 nM,70%,"N#Cc1cccc(COc2ccc(NC(=O)Cc3ccccc3Cl)cc2S(N)(=O)=O)c1 [Example 142, 2-(2-Chlorophenyl)-N-{4-[(3-cyanobenzyl)oxy]-3-sulfamoylphenyl}acetamide]"
9 nM,72%,39 nM,71%,"NS(=O)(=O)c1cc(NC(=O)Cc2ccccc2Cl)ccc1OCc1ccc(F)cc1 [Example 143, 2-(2-Chlorophenyl)-N-{4-[(4-fluorobenzyl)oxy]-3-sulfamoylphenyl}acetamide]"
86 nM,93%,129 nM,76%,"NS(=O)(=O)c1cc(NC(=O)Cc2ccccc2Cl)ccc1OCc1ccccc1Cl [Example 144, N-{4-[(2-Chlorobenzyl)oxy]-3-sulfamoylphenyl}-2-(2-chlorophenyl)acetamide]"
45 nM,81%,118 nM,77%,"NS(=O)(=O)c1cc(NC(=O)Cc2ccccc2Cl)ccc1OCc1cccnc1 [Example 149, 2-(2-Chlorophenyl)-N-[4-(pyridin-3-ylmethoxy)-3-sulfamoylphenyl]acetamide]"
,96%,,79%,"NS(=O)(=O)c1cc(NC(=O)Cc2ccccc2Cl)ccc1OCc1ccccn1 [Example 150, 2-(2-Chlorophenyl)-N-[4-(pyridin-2-ylmethoxy)-3-sulfamoylphenyl]acetamide]"
143 nM,88%,69 nM,97%,"NS(=O)(=O)c1cc(NC(=O)Cc2ccccc2Cl)ccc1OCc1ccncc1 [Example 151, 2-(2-Chlorophenyl)-N-[4-(pyridin-4-ylmethoxy)-3-sulfamoylphenyl]acetamide]"
,87%,,65%,"NS(=O)(=O)c1cc(NC(=O)Cc2ccccc2Cl)ccc1OCCc1ccccc1 [Example 155, 2-(2-Chlorophenyl)-N-[4-(2-phenylethoxy)-3-sulfamoylphenyl]acetamide]"
,67%,,55%,"NS(=O)(=O)c1cc(NC(=O)Cc2ccccc2Cl)ccc1OCC1CCC1 [Example 157, 2-(2-Chlorophenyl)-N-[4-(cyclobutylmethoxy)-3-sulfamoylphenyl]acetamide]"
,91%,,75%,"NS(=O)(=O)c1cc(NC(=O)Cc2ccccc2Cl)ccc1OCC1CCO1 (centres unmarked) [Example 158, 2-(2-Chlorophenyl)-N-[4-(oxetan-2-ylmethoxy)-3-sulfamoylphenyl]acetamide]"
162 nM,59%,97 nM,43%,"NS(=O)(=O)c1cc(NC(=O)Cc2ccccc2Cl)ccc1OCC1CCCOC1 (centres unmarked) [Example 165, 2-(2-Chlorophenyl)-N-[3-sulfamoyl-4-(tetrahydro-2H-pyran-3-ylmethoxy)phenyl]acetamide]"
